Results: US20220242846A1, “ISOINDOLINONE COMPOUNDS” (Monte Rosa Therapeutics AG, priority 2019, published 2022)
Where two headings read alike, the source gives them in different places.

Key:
[1] = target: GSPT1 (Homo sapiens, UniProt P15170+Q96SW2); experiment: Immunofluorescence assay for GSPT1 degradation in CAL-51 cells; assay type: cell-based; set-up: CAL-51 cells were purchased from DSMZ (cat. Number ACC302); endogenous in cells; host or cells: CAL-51 (DSMZ ACC302); settings: compound treatment 6 hours
In short: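 CAL-51 cells on fibronectin-coated plates treated 6 h with compound (30 μM to 0.1 nM); fixed, stained with anti-GSPT1/Alexa-488, phalloidin and DAPI, imaged by high-content microscopy. Mean GSPT1 intensity per cell normalized to controls; DC50 by non-linear regression.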

[2] = target: T1, Full length wild-type cereblon CRBN (Homo sapiens, UniProt Q96SW2); experiment: Fluorescence polarization (FP) assay indicating cereblon binding; settings: CRBN 80.0 nM, fluorescent probe 5 nM, FP measured after 12 hours; read-out: rFP IC50
T1 construct: Full length wild-type cereblon CRBN (80.0 nM, 10 μL) was incubated in assay buffer
In short: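 Full-length wild-type human CRBN (80.0 nM) preincubated 30 min at room temperature with compound (12-point curve, 300-0.937 or 3000-9.3 nM) in HEPES pH 8.0, NaCl, TCEP, Tween 20. Thalidomide-based Cy5-type probe then added at 5 nM final; FP read after 12 h (ex 590, em 675 nm), normalized to DMSO, IC50 derived.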

[3] = tested on: Human mammary epithelial cells (HMEC) engineered to express EGFP alone (non myc); experiment: 3D spheroid assay, non myc-HMEC (CellTiterGlo3D viability); assay type: cell-based; settings: 120 h, 3D spheroids, 5 days with compound, read-out: Code: EC50 value in the non myc-HMEC assay
Description: (§1) 3D Spheroid Experiments—HMEC
(§2) Human mammary epithelial cells (HMEC) were engineered to express either c-myc tagged with EGFP or EGFP alone (non myc) (analogous but distinct from Kessler J D et al, Science. 2012 Jan. 20; 335(6066):348-53. doi: 10.1126/science.1212728; Hsu T Y et al, Nature. 2015 Sep. 17; 525(7569):384-8. doi: 10.1038/nature14985). The engineered cells were seeded at 1000 (myc) or 4000 (non myc) cells/well in a 384 ultra-low attachment plate in a total volume of 40 µL, HMEC cell culture media (DMEM/F12+10% HI-FBS+15 mM HEPES+0.5 ug/ml Hydrocortisone+10 ug/ml Insulin+20 ng/ml EGF). Plates were spun at 1200 rpm for 5 minutes at room temperature to ensure that cells have gathered in the middle of the well and incubated at 37° C. for 48 hrs before firing with compounds. On Day 2 (48 h post seeding) cells were imaged (brightfield and EGFP fluorescence) using the Celigo imaging cytometer prior to firing compounds. For primary screens, compounds were added at three concentrations (1.25, 10 and 30 uM) in a volume of 120 nL using the ECHO acoustic dispenser and spun at 2000 rpm for 2 minutes at room temperature before incubating at 37° C. for 5 days. […] On Day 7, prior to measuring cell viability using CellTiterGlo3D, cells were imaged (brightfield and EGFP fluorescence) on the Celigo imaging cytometer. The CellTiterGlo3D reagent is added at 30uL/well and incubated at room temperature for 30mins After 30mins of incubation, luminescence readings were recorded using the Perkin Elmer EnVision reader.

[4] = tested on: Human mammary epithelial cells (HMEC) engineered to express c-myc tagged with EGFP; experiment: 3D spheroid assay, myc-HMEC (CellTiterGlo3D viability); assay type: cell-based
Description: as §1, §2

[5] = read-out: Code: activity for GSPT1 degradation (DC50)
[6] = Homo sapiens, HMEC, 120 h, 3D spheroids, 5 days with compound, read-out: Code: EC50 value in the myc-HMEC assay
[7] = myc-HMEC 3D spheroids (compounds with code D and E), 5 days, read-out: EC50
[8] = GSPT1 degradation, read-out: DC50
[9] = Homo sapiens, HMEC, 120 h, myc-HMEC 3D spheroids (compounds with code D and E), 5 days, read-out: EC50

T1 sequence (Q96SW2 whole entry): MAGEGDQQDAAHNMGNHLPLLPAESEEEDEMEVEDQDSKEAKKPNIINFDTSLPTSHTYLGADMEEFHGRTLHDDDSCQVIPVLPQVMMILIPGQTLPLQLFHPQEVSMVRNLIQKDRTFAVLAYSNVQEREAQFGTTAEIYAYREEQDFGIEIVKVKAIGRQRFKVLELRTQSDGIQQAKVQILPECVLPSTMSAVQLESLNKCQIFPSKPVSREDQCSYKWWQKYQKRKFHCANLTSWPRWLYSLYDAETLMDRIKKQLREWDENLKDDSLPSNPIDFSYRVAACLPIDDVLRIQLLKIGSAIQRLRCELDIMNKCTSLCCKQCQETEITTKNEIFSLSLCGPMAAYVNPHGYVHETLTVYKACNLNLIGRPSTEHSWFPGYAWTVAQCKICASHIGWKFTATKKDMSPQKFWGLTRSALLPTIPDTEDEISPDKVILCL
GSPT1, sequence (P15170 whole entry): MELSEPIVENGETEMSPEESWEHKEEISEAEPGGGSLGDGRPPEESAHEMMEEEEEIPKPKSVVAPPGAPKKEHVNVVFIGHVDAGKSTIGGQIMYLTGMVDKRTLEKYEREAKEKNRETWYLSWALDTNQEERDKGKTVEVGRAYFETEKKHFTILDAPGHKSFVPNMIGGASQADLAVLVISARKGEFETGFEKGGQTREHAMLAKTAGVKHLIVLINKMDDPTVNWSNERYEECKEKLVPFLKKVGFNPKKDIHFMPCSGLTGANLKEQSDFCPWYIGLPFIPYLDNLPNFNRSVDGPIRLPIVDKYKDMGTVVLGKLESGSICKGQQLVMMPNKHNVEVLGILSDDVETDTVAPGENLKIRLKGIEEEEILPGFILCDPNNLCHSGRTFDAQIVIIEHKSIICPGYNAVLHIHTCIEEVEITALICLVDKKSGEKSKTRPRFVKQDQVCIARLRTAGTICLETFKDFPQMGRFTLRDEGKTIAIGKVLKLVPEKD
GSPT1, sequence (Q96SW2 whole entry): as the sequence (Q96SW2 whole entry) above
GSPT1, sequence (Q16531 2-1140 partner limits assumed): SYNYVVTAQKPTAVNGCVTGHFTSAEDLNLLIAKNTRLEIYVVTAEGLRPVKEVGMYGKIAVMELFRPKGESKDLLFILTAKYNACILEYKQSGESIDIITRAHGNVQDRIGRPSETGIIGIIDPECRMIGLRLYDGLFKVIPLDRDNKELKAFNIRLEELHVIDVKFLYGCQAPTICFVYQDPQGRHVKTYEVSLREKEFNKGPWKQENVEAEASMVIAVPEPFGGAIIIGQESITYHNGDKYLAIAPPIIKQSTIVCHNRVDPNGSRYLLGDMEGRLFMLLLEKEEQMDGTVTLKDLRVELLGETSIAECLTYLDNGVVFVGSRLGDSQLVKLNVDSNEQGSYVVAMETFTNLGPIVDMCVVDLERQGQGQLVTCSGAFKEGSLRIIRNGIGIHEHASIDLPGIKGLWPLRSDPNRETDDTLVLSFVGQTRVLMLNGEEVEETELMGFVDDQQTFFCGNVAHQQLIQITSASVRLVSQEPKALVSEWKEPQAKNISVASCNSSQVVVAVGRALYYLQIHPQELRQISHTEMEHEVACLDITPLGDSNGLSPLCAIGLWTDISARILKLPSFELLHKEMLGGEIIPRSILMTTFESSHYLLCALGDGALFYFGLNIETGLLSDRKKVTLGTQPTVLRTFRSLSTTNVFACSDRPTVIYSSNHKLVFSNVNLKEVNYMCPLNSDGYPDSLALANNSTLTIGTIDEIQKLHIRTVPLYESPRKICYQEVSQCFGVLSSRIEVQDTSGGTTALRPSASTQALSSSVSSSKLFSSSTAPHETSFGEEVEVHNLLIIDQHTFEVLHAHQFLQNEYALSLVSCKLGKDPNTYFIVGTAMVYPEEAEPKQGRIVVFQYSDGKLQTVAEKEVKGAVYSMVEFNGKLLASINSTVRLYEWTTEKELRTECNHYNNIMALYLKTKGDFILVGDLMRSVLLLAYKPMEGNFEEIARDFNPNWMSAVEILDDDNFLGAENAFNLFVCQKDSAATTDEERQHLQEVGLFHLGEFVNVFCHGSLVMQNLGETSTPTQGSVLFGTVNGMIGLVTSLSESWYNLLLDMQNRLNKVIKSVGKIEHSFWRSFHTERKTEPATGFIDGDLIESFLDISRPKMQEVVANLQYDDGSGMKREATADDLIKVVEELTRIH

Row | SMILES | DC50 [1, 5] | IC50 [2] | EC50 [3] | EC50 [4, 6] | EC50 [4, 7] | DC50 [1, 8] | EC50 [4, 9]
1 | O=C1CCC(N2Cc3ccc(CNC(=O)NC4CCCC4)cc3C2=O)C(=O)N1 (stereo not shown) [Compound 28] | > 300 nM | 814 nM | > 10000 nM | > 2000 nM |  |  | 
2 | O=C1CCC(N2Cc3ccc(CNC(=O)NC4CCCCC4)cc3C2=O)C(=O)N1 (stereo not shown) [Compound 29] | > 300 nM | 1140 nM | > 10000 nM | > 2000 nM |  |  | 
3 | COc1ccc(Cl)cc1NC(=O)NCc1ccc2c(c1)C(=O)N(C1CCC(=O)NC1=O)C2 (stereo not shown) [Compound 30] | ≤ 100 nM | 580 nM | > 10000 nM | ≤ 400 nM | 359 nM |  | 
4 | CCc1cccc(NC(=O)NCc2ccc3c(c2)C(=O)N(C2CCC(=O)NC2=O)C3)c1 (stereo not shown) [Compound 31] | 100 to 300 nM | 595 nM | > 10000 nM | 400 to 2000 nM | 457 nM |  | 
5 | Cc1cc(Cl)ccc1NC(=O)NCc1ccc2c(c1)C(=O)N(C1CCC(=O)NC1=O)C2 (stereo not shown) [Compound 32] | > 300 nM | 508 nM | > 10000 nM | > 2000 nM |  |  | 
6 | O=C1CCC(N2Cc3ccc(CNC(=O)Nc4cccc(Cl)c4F)cc3C2=O)C(=O)N1 (stereo not shown) [Compound 33] | ≤ 100 nM | 591 nM | > 10000 nM | ≤ 400 nM | 250 nM |  | 
7 | O=C1CCC(N2Cc3ccc(CNC(=O)Nc4cccc(F)c4)cc3C2=O)C(=O)N1 (stereo not shown) [Compound 34] | > 300 nM | 481 nM | > 10000 nM | > 2000 nM |  |  | 
8 | O=C1CCC(N2Cc3ccc(CNC(=O)Nc4cc(Cl)ccc4Cl)cc3C2=O)C(=O)N1 (stereo not shown) [Compound 35] | > 300 nM | 602 nM | > 10000 nM | > 2000 nM |  |  | 
9 | CCc1ccccc1NC(=O)NCc1ccc2c(c1)C(=O)N(C1CCC(=O)NC1=O)C2 (stereo not shown) [Compound 36] | > 300 nM | 546 nM | > 10000 nM | > 2000 nM |  |  | 
10 | Cc1ccccc1NC(=O)NCc1ccc2c(c1)C(=O)N(C1CCC(=O)NC1=O)C2 (stereo not shown) [Compound 37] | > 300 nM | 672 nM | > 10000 nM | > 2000 nM |  |  | 
11 | O=C1CCC(N2Cc3ccc(CNC(=O)Nc4cc(Cl)cc(Cl)c4)cc3C2=O)C(=O)N1 (stereo not shown) [Compound 38] | 100 to 300 nM | 589 nM | > 10000 nM | ≤ 400 nM | 161 nM |  | 
12 | O=C1CCC(N2Cc3ccc(CNC(=O)Nc4ccc(F)c(F)c4)cc3C2=O)C(=O)N1 (stereo not shown) [Compound 39] | > 300 nM | 587 nM | > 10000 nM | > 2000 nM |  |  | 
13 | O=C1CCC(N2Cc3ccc(CNC(=O)NC4CCCc5ccccc54)cc3C2=O)C(=O)N1 (stereo not shown) [Compound 40] | > 300 nM | 566 nM | > 10000 nM | > 2000 nM |  |  | 
14 | O=C1CCC(N2Cc3ccc(CNC(=O)Nc4ccc(C(F)(F)F)cc4)cc3C2=O)C(=O)N1 (stereo not shown) [Compound 41] | 100 to 300 nM | 590 nM | > 10000 nM | 400 to 2000 nM | 1100 nM | 172 nM | ≤ 2000 nM
15 | O=C1CCC(N2Cc3ccc(CNC(=O)Nc4ccc(F)c(Cl)c4)cc3C2=O)C(=O)N1 (stereo not shown) [Compound 42] | 100 to 300 nM | 589 nM | > 10000 nM | 400 to 2000 nM | 1720 nM | 253 nM | ≤ 2000 nM
16 | Cc1cccc(NC(=O)NCc2ccc3c(c2)C(=O)N(C2CCC(=O)NC2=O)C3)c1 (stereo not shown) [Compound 43] | > 300 nM | 757 nM | > 10000 nM | > 2000 nM |  |  | 
17 | Cc1cccc(NC(=O)NCc2ccc3c(c2)C(=O)N(C2CCC(=O)NC2=O)C3)c1C (stereo not shown) [Compound 44] | > 300 nM | 747 nM | > 10000 nM | > 2000 nM |  |  | 
18 | O=C1CCC(N2Cc3ccc(CNC(=O)Nc4ccc(Cl)cc4Cl)cc3C2=O)C(=O)N1 (stereo not shown) [Compound 45] | > 300 nM | 472 nM | > 10000 nM | > 2000 nM |  |  | 
